Data published in article PMC12126525, “Mechanism of ATP hydrolysis in the Hsp70 BiP nucleotide-binding domain” (Nature Communications, 2025).
Where “and” joins values, the source holds several entries; their conditions need not be identical. Equal entries are not always repeated. Where two headings read alike, the source gives them in different places. Values belong to the molecule of their own block, whether it stands above or below them.

How the values were obtained:
BiP NBD [1] = target: T1, BiP NBD (Homo sapiens, UniProt P11021); settings: for tADP: Supplementary Fig 16b
T1 sequence (P11021 19-406): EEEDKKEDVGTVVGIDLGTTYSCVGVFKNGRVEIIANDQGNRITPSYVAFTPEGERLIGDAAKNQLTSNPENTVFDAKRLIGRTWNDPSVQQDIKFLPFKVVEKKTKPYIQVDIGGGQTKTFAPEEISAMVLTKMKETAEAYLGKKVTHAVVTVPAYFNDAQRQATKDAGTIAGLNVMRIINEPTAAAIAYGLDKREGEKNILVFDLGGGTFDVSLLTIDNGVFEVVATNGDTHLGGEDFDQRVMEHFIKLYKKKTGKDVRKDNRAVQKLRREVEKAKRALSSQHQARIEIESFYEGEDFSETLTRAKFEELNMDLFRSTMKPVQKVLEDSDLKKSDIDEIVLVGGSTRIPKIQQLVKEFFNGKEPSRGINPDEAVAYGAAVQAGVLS
Protocol: We next wanted to compare our determined kinetic rates of ADP dissociation, koff2 and koff5 , with a standard assay in the Hsp70 field that measures ADP lifetimes by ADP displacement.
The dissociation rate constants (koff) were determined by fitting the data to a one phase exponential function using a python script. […]
The red line corresponds to the mono-exponential fit of the data. […]
from 0.001 to 10 mM, in the absence of Pi (pink circles) and with 0.5 mM Pi (blue circles). Data points represent the mean for three independent experiments and the error bar represents the standard deviation. The half maximal inhibitory concentration (IC50) of Ca was calculated from three

BiP NBD [2] = target: T1, BiP NBD; test: Single turn-over assay (anion exchange quantification of ATP/ADP); type: biochemical; parameters: His6 (N, cleaved yes); made in house; host or cells: E. coli BL21-(DE3)-Lemo, pET28a vector
Protocol: We next set out to benchmark these kinetic parameters to independently measured values. Out of the 11 free parameters of the functional cycle, 3 parameters can be commonly accessed with classical experiments (kcat, koff2 and koff5 ). We benchmarked kcat with standard single-turn over experiments[44],[46]. For these experiments, the NBD·ATP complex is initially formed by incubation of an excess of ATP with BiP NBD at 4 °C. At this temperature, it is generally assumed that the hydrolysis rate can be neglected. Unbound nucleotides were removed by gel filtration and the purified NBD·ATP complex was flash frozen. The complex was then incubated at 37 °C for variable time, after which the reaction was quenched by addition of HCl. This step unfolds the NBD, thus immediately stopping the reaction and releasing all educts and products into solution. From the resulting samples, the [ATP]/[ADP] ratio was determined by anion exchange chromatography.
The single turnover experiment starts from a batch of stoichiometrically assembled NBD^ATP complex. ATP hydrolysis and ATP dissociation occur on parallel kinetic pathways, according to Eqs. (1) and (2). At very low protein concentrations [NBD^ATP]≪KD1 , rebinding of ATP after dissociation, as well as the buildup of the products ADP and Pi, can be neglected and the observed ATP decay follows the analytical equation35 ATP/ATP0=koff1/kcat*+kcat/kcat*e^−kcat*t with36 kcat*=kcat+koff1
At proteins concentrations [NBD^ATP]≳KD1 , as it was used in our experiments, ATP rebinding after dissociation cannot be neglected, which is competitive with the product ADP that builds up over time. […]
The ATPase activity of BiP NBD was determined under single-turnover conditions as previously described with minor modifications of the protocol. The main modification was to replace the radioactivity-based detection by a label free anion-exchange based quantification. […] The relative ATP/ADP ratio was determined using an anion chromatography-based assay.

tADP (BiP NBD [1]; Calcium 0.1 μM, second series ([Pi] 0.5 mM)): 52.28 s
tADP (BiP NBD [1]; Calcium 0.1 μM, series without added Pi): 15.3 s
tADP (BiP NBD [1]; Calcium 0.5 μM, second series ([Pi] 0.5 mM)): 45.66 s
tADP (BiP NBD [1]; Calcium 0.5 μM, series without added Pi): 12.1 s
tADP (BiP NBD [1]; Calcium 1 μM, second series ([Pi] 0.5 mM)): 50.78 s
tADP (BiP NBD [1]; Calcium 1 μM, series without added Pi): 12.7 s
tADP (BiP NBD [1]; Calcium 5 μM, second series ([Pi] 0.5 mM)): 54.19 s
tADP (BiP NBD [1]; Calcium 5 μM, series without added Pi): 15.7 s
tADP (BiP NBD [1]; Calcium 10 μM, second series ([Pi] 0.5 mM)): 50.03 s
tADP (BiP NBD [1]; Calcium 10 μM, series without added Pi): 12.2 s
tADP (BiP NBD [1]; Calcium 25 μM, series without added Pi): 16.2 s
tADP (BiP NBD [1]; Calcium 50 μM, second series ([Pi] 0.5 mM)): 54.42 s
tADP (BiP NBD [1]; Calcium 50 μM, series without added Pi): 16.2 s
tADP (BiP NBD [1]; Calcium 75 μM, series without added Pi): 16.9 s
tADP (BiP NBD [1]; Calcium 100 μM, second series ([Pi] 0.5 mM)): 49.18 s
tADP (BiP NBD [1]; Calcium 100 μM, series without added Pi): 18.0 s
tADP (BiP NBD [1]; Calcium 125 μM, series without added Pi): 19.5 s
tADP (BiP NBD [1]; Calcium 150 μM, series without added Pi): 22.4 s
tADP (BiP NBD [1]; Calcium 175 μM, series without added Pi): 21.2 s
tADP (BiP NBD [1]; Calcium 200 μM, series without added Pi): 30.8 s
tADP (BiP NBD [1]; Calcium 300 μM, series without added Pi): 33.0 s
tADP (BiP NBD [1]; Calcium 400 μM, series without added Pi): 36.0 s
tADP (BiP NBD [1]; Calcium 500 μM, second series ([Pi] 0.5 mM)): 44.74 s
tADP (BiP NBD [1]; Calcium 500 μM, series without added Pi): 38.8 s
tADP (BiP NBD [1]; Calcium 1000 μM, second series ([Pi] 0.5 mM)): 48.65 s
tADP (BiP NBD [1]; Calcium 1000 μM, series without added Pi): 39.9 s
tADP (BiP NBD [1]; Calcium 5000 μM, second series ([Pi] 0.5 mM)): 49.79 s
tADP (BiP NBD [1]; Calcium 5000 μM, series without added Pi): 41.9 s
IC50 (BiP NBD [1]; read-out: IC50 (ADP mean life as a function of calcium concentration), MABA-ADP release, no Pi, fixed 10 mM magnesium, calcium 0.001 to 10 mM): 212 ± 7 µM
SMILES: [Ca+2] [calcium]
lifetime of bound ADP·Pi versus calcium concentration (BiP NBD [1]; in the presence of 0.5 mM phosphate): completely independent of the calcium concentration

kcat* (single turn-over) (BiP NBD [2]; 37 °C, monoexponential fit): 0.071 s⁻¹ and 0.071 ± 0.02 s⁻¹
kcat single turn-over average (BiP NBD [2]; Supplementary Fig 11b): 0.071 s⁻¹
SMILES: Nc1ncnc2c1ncn2[C@@H]1O[C@H](COP(=O)(O)OP(=O)(O)OP(=O)(O)O)[C@@H](O)[C@H]1O [ATP]
kcat single turn-over (BiP NBD [2]; Supplementary Fig 11b, replicates [1]-[6]): 0.085 s⁻¹ and 0.070 s⁻¹ and 0.057 s⁻¹ and 0.075 s⁻¹ and 0.073 s⁻¹
